From patent US20200024662A1, “METHODS FOR TREATING OPIOID ADDICTION” (ASSUREX HEALTH, INC., priority 2016, published 2020)

Key:
Format in all cases: in vivo, human
[1] = system: patients treated with Methadone in the START trial; test: Completion of 24-week Methadone treatment, START samples of Example 2; settings: 24-week treatment
Method: (§1) Samples from patients treated with Methadone in the START trial described in Example 1 above were used (N=352). […] Each model was tested as described below against Sample 1, Sample 2 and/or the Full Sample.

[2] = system: patients treated with Methadone in the START trial; test: PD Model 1 binning vs Methadone completion
Method: (§2) For the model analyses, models were developed that sort patients into one of three categories, Green (‘G’) Yellow (‘Y’) or Red (‘R’). Patients determined to be high risk for non-completion by the model are placed into the Red Bin. Patients at intermediate risk of non-completion are placed in the Yellow Bin, and for this study, Yellow Bin patients are treated the same as patients found to be at Low Risk of non-completion, or those who are placed in the Green Bin. Thus, the Green and Yellow bins are combined for analysis.
PD Model 1: The completion percentage was calculated for each genotype. For each gene and genotype completion percentage, the means and standard deviations were calculated. For each genotype that was greater than or equal to one standard deviation away from the mean, towards higher completion, a score of 1 was given. For each genotype that was greater than or equal to one standard deviation away from the mean, towards lower completion, a score of −1 was given. All others received a score of 0. The patient's PD risk was calculated by summing the total genotype risk score. The individual risk scores were combined to create the SumRisk variable; a final score of −1 was converted to Green, a score of 0 was converted to Yellow, and a score of 1 was converted to Red. […] A listing of tested alleles, and score assignments for PD Model 1 can be found in Table 16.
as §1
(§3) Pearson's product moment, Chi-square with Yates correction were calculated. Diagnostic tests, odds ratios, Pearson's product moment, Chi-square with Yates correction were calculated using MEDCALC and R version 3.3.1.

[3] = system: patients treated with Methadone in the START trial; test: PK/PD Model 1 binning vs Methadone completion
Method: as §2
(§4) Three separate PK/PD Models were generated by combining the PK model with each of the three PD models separately as follows. For each PKPD model, the corresponding PD risk score was added to the raw PK score (bin). A total PD risk score that was negative, represents a reduction of the baseline PK score, while a total PD risk score that was positive represented an increase in the baseline PK score.
as §1, §3
For PK/PD Model 1, final score was the sum of the PD 1 score and the PK score, where PK green=1, PK Yellow=2 and PK red=3. Bins were assigned according to Table 61.

[4] = system: patients treated with Methadone in the START trial; test: PK/PD Model 3 binning vs Methadone completion
Method: as §2, §4, §1, §3

[5] = PD Model 1, Full Sample, COMT Low Risk, SLC6A4 High Risk (Yellow)
[6] = PD Model 1, Full Sample, COMT Low Risk, SLC6A4 Normal Risk (Green)
[7] = PD Model 1, Full Sample, COMT Normal Risk, SLC6A4 High Risk (Red)
[8] = PD Model 1, Full Sample, COMT Normal Risk, SLC6A4 Normal Risk (Yellow)
[9] = PD Model 1, Full Sample, Green bin
[10] = PD Model 1, Full Sample, Red bin
[11] = PD Model 1, Full Sample, Yellow bin
[12] = PD Model 1, Sample 1, COMT Low Risk, SLC6A4 High Risk (Yellow)
[13] = PD Model 1, Sample 1, COMT Low Risk, SLC6A4 Normal Risk (Green)
[14] = PD Model 1, Sample 1, COMT Normal Risk, SLC6A4 High Risk (Red)
[15] = PD Model 1, Sample 1, COMT Normal Risk, SLC6A4 Normal Risk (Yellow)
[16] = PD Model 1, Sample 1, Green bin
[17] = PD Model 1, Sample 1, Yellow bin
[18] = PD Model 1, Sample 2, COMT Low Risk, SLC6A4 High Risk (Yellow)
[19] = PD Model 1, Sample 2, COMT Low Risk, SLC6A4 Normal Risk (Green)
[20] = PD Model 1, Sample 2, COMT Normal Risk, SLC6A4 High Risk (Red)
[21] = PD Model 1, Sample 2, COMT Normal Risk, SLC6A4 Normal Risk (Yellow)
[22] = PD Model 1, Sample 2, Green bin
[23] = PD Model 1, Sample 2, Yellow bin
[24] = PK/PD Model 1, Full Sample, Green bin
[25] = PK/PD Model 1, Full Sample, Red bin
[26] = PK/PD Model 1, Full Sample, Yellow bin
[27] = PK/PD Model 1, Sample 1, Green bin
[28] = PK/PD Model 1, Sample 1, Red bin
[29] = PK/PD Model 1, Sample 1, Yellow bin
[30] = PK/PD Model 1, Sample 2, Green bin
[31] = PK/PD Model 1, Sample 2, Red bin
[32] = PK/PD Model 1, Sample 2, Yellow bin
[33] = PK/PD Model 3, Full Sample, Green bin, Risk Score −1.3 to 1.3
[34] = PK/PD Model 3, Full Sample, Red bin, Risk Score 2.4+
[35] = PK/PD Model 3, Full Sample, Yellow bin, Risk Score 1.4 to 2.3
[36] = PK/PD Model 3, Sample 1, Green bin, Risk Score −0.8 to 1.3
[37] = PK/PD Model 3, Sample 1, Red bin, Risk Score 2.4 to 5.1
[38] = PK/PD Model 3, Sample 1, Yellow bin, Risk Score 1.4 to 2.3
[39] = PK/PD Model 3, Sample 2, Green bin, Risk Score −1.1 to 0.8
[40] = PK/PD Model 3, Sample 2, Red bin, Risk Score 2.2 to 4.3
[41] = PK/PD Model 3, Sample 2, Yellow bin, Risk Score 0.9 to 2.1

## CCC(=O)C(CC(C)N(C)C)(c1ccccc1)c1ccccc1 (stereo not shown) [Methadone, methadone]
[1]; Sample 1 (N=176)
  Completers: 156
  non-completers: 20
[1]; Sample 2 (N=176)
  Completers: 159
  non-completers: 17
[2]; [5]
  Completers: 13
  Non Completers: 1
[2]; [6]
  Completers: 62
  Non Completers: 4
[2]; [7]
  Completers: 39
  Non Completers: 13
[2]; [8]
  Completers: 193
  Non Completers: 27
[2]; [9]
  Completers: 62
  Non Completers: 4
[2]; PD Model 1, Full Sample, LR/HR vs. NR/NR
  Odds Ratio for non-completion: 0.5499
[2]; PD Model 1, Full Sample, LR/NR vs. NR/HR
  Odds Ratio for non-completion: 0.1935
[2]; PD Model 1, Full Sample, LR/NR vs. NR/NR
  Odds Ratio for non-completion: 0.4612
[2]; PD Model 1, Full Sample, NR/HR vs. NR/NR
  Odds Ratio for non-completion: 2.3827
[2]; [10]
  Completers: 39
  Non Completers: 13
[2]; [11]
  Completers: 206
  Non Completers: 28
[2]; [12]
  Completers: 8
  Non Completers: 0
[2]; [13]
  Completers: 34
  Non Completers: 1
[2]; [14]
  Completers: 20
  Non Completers: 7
[2]; [15]
  Completers: 94
  Non Completers: 12
[2]; [16]
  Completers: 34
  Non Completers: 1
[2]; PD Model 1, Sample 1, LR/HR vs. NR/NR
  Odds Ratio for non-completion: 0.4447
[2]; PD Model 1, Sample 1, LR/NR vs. NR/HR
  Odds Ratio for non-completion: 0.0840
[2]; PD Model 1, Sample 1, LR/NR vs. NR/NR
  Odds Ratio for non-completion: 0.2304
[2]; PD Model 1, Sample 1, NR/HR vs. NR/NR
  Odds Ratio for non-completion: 2.7417
[2]; PD Model 1, Sample 1, Red bin
  Completers: 20
  Non Completers: 7
[2]; [17]
  Completers: 102
  Non Completers: 12
[2]; [18]
  Completers: 7
  Non Completers: 0
[2]; [19]
  Completers: 39
  Non Completers: 2
[2]; [20]
  Completers: 21
  Non Completers: 6
[2]; [21]
  Completers: 92
  Non Completers: 9
[2]; [22]
  Completers: 39
  Non Completers: 2
[2]; PD Model 1, Sample 2, LR/HR vs. NR/NR
  Odds Ratio for non-completion: 0.6491
[2]; PD Model 1, Sample 2, LR/NR vs. NR/HR
  Odds Ratio for non-completion: 0.1795
[2]; PD Model 1, Sample 2, LR/NR vs. NR/NR
  Odds Ratio for non-completion: 0.5242
[2]; PD Model 1, Sample 2, NR/HR vs. NR/NR
  Odds Ratio for non-completion: 2.9206
[2]; PD Model 1, Sample 2, Red bin
  Completers: 21
  Non Completers: 6
[2]; [23]
  Completers: 99
  Non Completers: 9
[3]; [24]
  Completers: 262
  Non Completers: 23
[3]; [25]
  Completers: 2
  Non Completers: 6
[3]; [26]
  Completers: 43
  Non Completers: 16
[3]; [27]
  Completers: 137
  Non Completers: 11
[3]; [28]
  Completers: 2
  Non Completers: 3
[3]; [29]
  Completers: 17
  Non Completers: 6
[3]; [30]
  Completers: 134
  Non Completers: 10
[3]; [31]
  Completers: 0
  Non Completers: 2
[3]; [32]
  Completers: 25
  Non Completers: 5
[4]; [33]
  Completers: 150
  Non Completers: 7
[4]; [34]
  Completers: 64
  Non Completers: 28
[4]; [35]
  Completers: 93
  Non Completers: 10
[4]; [36]
  Completers: 80
  Non Completers: 2
[4]; [37]
  Completers: 26
  Non Completers: 12
[4]; [38]
  Completers: 50
  Non Completers: 6
[4]; [39]
  Completers: 77
  Non Completers: 2
[4]; [40]
  Completers: 24
  Non Completers: 10
[4]; [41]
  Completers: 58
  Non Completers: 5
